Results on eight compounds are retold here after patent US20100330604A1, “QUANTIFICATION OF CHANGES IN THE DEGREES OF ORDER OF CELLULAR AND VIRAL MEMBRANES AND APPLICATIONS TO DIAGNOSIS, TREATMENT AND DRUG SCREENING” (priority 2007, published 2010).

Read-outs that look alike come from different tables or passages of the source.

The subject of test [1] is platelets. Briefly: Shear Induced Platelet activation (SIPA): high Rf platelet subpopulation. The format is cell-based.
Test [2] concerns platelets. Kind of test: Di-4-[…] fluorescence and Rf (675/575 nm) by flow cytometry on isolated platelets treated in vitro. The class given is cell-based.
The test system of test [3] is platelets. Kind of test: Spectral flow cytometry of di-4-[…] stained platelets stimulated by soluble agonists. The class given is cell-based.
The subject of the next test is cells. Briefly: Kinetics of apoptosis after addition of staurosoprine (di-4-[…] staining, flow cytometry). The format is cell-based. The text has this:
Cells are detected, identified and segregated according to their size using forward scatter (FSC) and granularity (SSC). A total of 5000-10000 particles are typically analyzed. The excitation light is provided by a 488 nm laser, but could be achieved with lasers having wavelengths between 400 and 500 nm, among other possibilities. The emission fluorescence associated with liquid ordered domains is acquired between 575+/−25 nm, but the bandwidth could be narrower or wider, for example contained between 500 and 600 nm. The emission fluorescence associated with liquid disordered domains is acquired between 675+/−25 nm, but the bandwidth could be narrower or wider, contained for example between 650 and 750 nm.
Amplifications and gains associated with both fluorescences are adjusted on calibrated fluorescent beads or on a control cell population to obtain a ratio of fluorescence and to allow increases or decreases of the fluorescences and of the ratio. The ratio of fluorescence (Rf) is determined for each particle analysed by computing the ratio between the fluorescence intensity at 675 nm and the fluorescence intensity at 575 nm. By plotting FSC or SSC as a function of Rf for all particles on a logarithmic scale graph, the percentage of apoptotic cells can be determined as being the percentage of cells in the studied population having a Rf higher than a control population.

In test [4] the test system is platelets. Briefly: Di-4-[…] Rf by confocal fluorescent microscopy on platelets. The class given is cell-based. The following applies: 10 mM, 37° C., 30 min; four donors; p=0.045. As for the experimental part:
Referring to FIG. 3, fluorescence intensities were measured by confocal fluorescent microscopy and flow cytometry on control platelets, cholesterol depleted platelets (10 mM Methyl-β-cyclodextrin, 37° C., 30 min) and cholesterol enriched platelets (2 mM Cholesterol-MCD complex, 37° C., 30 min).
A META confocal fluorescence microscope system (Zeiss, Toronto) was used to measure the intensities of fluorescence between 534 to 599 nm and between 650 to 684 nm allowing calculating the fluorescence ratio (Rf) prepared according as described hereinabove. Consistently with previous published data on neutrophils (Jin L et al. Biophys J; 2006), the Rf was higher after depletion compared to control platelets (measures on at least 5 platelets of four different donors; p=0.045) (Panel A).

For a further test, the system named is P-selectin. Kind of test: Expression of platelet activation marker P-selectin on washed platelets. The class given is cell-based. The following applies: 10 mM, 30 minutes, room temperature; after 10 μM TRAP or 50 μM A23187.
For test [5], the system named is activated GpIIbIIIa receptors. Briefly: Activation of the activated GpIIbIIIa receptors on washed platelets. The class given is cell-based. The following applies: 10 mM, 30 minutes, room temperature; after 10 μM TRAP or 50 μM A23187.
The test system of test [6] is platelets. The following applies: all three patient groups; FIG. 19 panel B.
The test system of test [7] is platelets. The following applies: mean+/-SD.
Test [8] has as its system platelets. Kind of test: Di-4-ANEPPDHQ Rf by flow cytometry on platelets of hyperlipidemic patients before and after atorvastatin. As to conditions: after 6-week atorvastatin 40 mg. The format is in vivo, human.
The mark [9] stands for this setting: 10 mM, room temperature, during incubation, N=3.

With `C=C1[C@@H](C)[C@H]2[C@H](Cc3ccccc3)NC(=O)[C@]23[C@H](OC(C)=O)/C=C/[C@@](C)(O)C(=O)[C@@H](C)C/C=C/[C@H]3[C@@H]1O` [cytochalasin D], the “generation of the high Rf platelet population during the shear treatment” value in the test on platelets [1] is given as “abrogated”.

For the compound `CNc1ccc2oc(C[C@H]3O[C@@]4(CC[C@H]3C)O[C@H]([C@H](C)C(=O)c3ccc[nH]3)[C@H](C)C[C@H]4C)nc2c1C(=O)O` [A23187], the “Rf vs. non activated platelets incubated with TBS” value in the test on platelets [2] (agonist: 10 μM TRAP or 50 μM A23187, p<0.05) is listed as “significantly increased”. Moreover, in the test with platelets [3], the “fluorescence intensities between 515 and 600 nm (more ordered phases) upon activation” value is listed as “decrease”.

`CN[C@@H]1C[C@H]2O[C@@](C)([C@@H]1OC)n1c3ccccc3c3c4c(c5c6ccccc6n2c5c31)C(=O)NC4` [staurosoprine]: in the test with cells (FIG. 17 panel G), the “total proportion of intact cells after induction of apoptosis” value is “decreases regularly”. The “time at which the concentration in microparticles is maximal” value with cells (FIG. 17 panel H) worked out at 24 h.

For thrombin, in the test with platelets [3] (0.5 U/mL, 30 minutes at 37 C), the “fluorescence at wavelengths larger than 660 nm compared to controls” value is reported as “increased significantly”; the “fluorescence between 530 and 585 nm compared to controls” value was “decreased significantly”. Further, in the test with platelets [3] (Thrombin 0.5 U/ml, A23187 10 μM, Thrombin 0.5 U/ml/Convulxin 500 ng/ml, FIG. 15), the “fluorescence intensities between 515 and 600 nm (more ordered phases) upon activation” value is “decrease”.

In the case of Methyl-β-cyclodextrin, the “Rf by confocal microscopy compared to control platelets” value in the test with platelets [4] was “higher”. In addition, the “fluorescence intensity (575 and 675 nm) versus control undepleted platelets” value in the test with platelets [2] (10 mM, 37° C., 30 min, 10 μM di-4-ANEPPDHQ) is on record as “shifted to lower values”. Also, the “Rf vs. control platelets” value in the test on platelets [2] (10 mM, 30 minutes, room temperature, p<0.05 to p<0.001) is recorded as “increased”. Besides, the “time of cholesterol depletion after which the fluorescence ratio measurement is substantially stable” value with platelets [2] (10 mM, room temperature) amounted to 30 min. For the same compound, in the test on platelets [2] (setting [9]), the “fluorescence associated to the more ordered membrane (575 nm)” value was “decreased” and the “fluorescence emitted at 675 nm” value is on record as “remained stable”. In addition, the “ratio of fluorescence (Rf) during the incubation” value with platelets [2] (10 mM, room temperature, N=3) was “increased”. Moreover, the “fluorescence ratio (Rf) calculated from flow cytometry data” value in the test on platelets [2] (cholesterol depletion 10 mM, 37° C., 30 min, N=5) was “increased”. Also, the “expression of platelet activation marker P-selectin” value in the test with P-selectin is on record as “decreased”. Also, in test [5], the “activation of the activated GpIIbIIIa receptors” value is listed as “decreased”.

In the case of `COC(=O)[C@H](c1ccccc1Cl)N1CCc2sccc2C1` [clopidogrel], the “platelet sub-population (Population 2), about 0.46% of platelets before treatment” value in the test on platelets [6] is “inhibited”. The “ratio of fluorescence (Rf) after administration of clopidogrel” value in the test with platelets [7] (Group A: clopidogrel 300 mg the day before + 75 mg the morning of the procedure, before 8.80+/-0.2, p<0.001) is 8.68+/−0.22; with platelets [7] (Group B: clopidogrel 600 mg the morning of (2 hours before) the procedure, before 8.90+/-0.24, p=0.006), 8.77+/−0.27; in the test with platelets [7] (Group C: clopidogrel 600 mg the day before and 600 mg the morning of the procedure, before 8.69+/-0.29, p=0.88), 8.69+/−0.21.

`CCCCC[C@@H](O)[C@H]1C(=O)O[C@H](C)[C@@H](O)/C=C/C=C/C=C/C=C/C=C(\C)[C@@H](O)C[C@H](O)C[C@H](O)C[C@H](O)C[C@H](O)C[C@H](O)C[C@@H]1O` [filipin]: the “Rf measured by flow cytometry” value in the test with platelets [2] (platelets, 30 minutes at 37° C., different concentrations, N=5) is given as “dose-dependency”.

For the compound `CC(C)c1c(C(=O)Nc2ccccc2)c(-c2ccccc2)c(-c2ccc(F)cc2)n1CC[C@@H](O)C[C@@H](O)CC(=O)O` [atorvastatin], the “Rf (MLO in platelets)” value in the test with platelets [8] (20 hyperlipidemic patients, compared value 9.2+/-0.1, p=0.01) is listed as 8.8+/−0.1. In the test with platelets [8] (compared value 12.8+/-0.5, p=0.09), the “effects of the cholesterol depletion on the MLO (Rf)” value is recorded as 11.7+/−0.2.
